The values below come from patent publication US12780800B1, “Triazole-pyridinyl substituted azacyclohexyl acetic acid compounds as LPA receptor antagonists” (Viva Star Biosciences Limited, priority 2021, dated 2022).

For the test, the target named is T1, LPA1 (Homo sapiens, UniProt Q92633).
T1 construct: ProLink (PK) beta-galactosidase enzyme-fragment tag; host or cells: CHO-K1
T1 sequence (Q92633 whole entry, the tested form may be a part): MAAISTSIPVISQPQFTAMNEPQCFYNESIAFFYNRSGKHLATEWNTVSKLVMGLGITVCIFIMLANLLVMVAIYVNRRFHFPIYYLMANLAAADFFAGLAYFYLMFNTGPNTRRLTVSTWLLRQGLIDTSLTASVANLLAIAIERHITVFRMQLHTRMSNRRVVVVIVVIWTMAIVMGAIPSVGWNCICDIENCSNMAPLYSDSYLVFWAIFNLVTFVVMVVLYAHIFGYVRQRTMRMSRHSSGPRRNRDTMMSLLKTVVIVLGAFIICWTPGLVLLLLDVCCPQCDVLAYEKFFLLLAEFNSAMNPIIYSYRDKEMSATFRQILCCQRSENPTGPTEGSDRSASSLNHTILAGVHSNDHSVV
Kind of test: LPA1 calcium flux assay (LPA1 functional antagonist assay). The test is classed as cell-based. As to conditions: PathHunter CHO-K1 EDG2 β-Arrestin cell line; calcium indicator dye; stimulated with EC80 concentration of LPA; FLIPR Tetra. In outline:
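The LPA1 antagonist readout was intracellular calcium flux, and IC50 values were calculated from it. Plates stood 30 min at RT after compound addition. Cells, grown overnight, had first taken up calcium dye over 45 min at 37 °C.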
A general note: A change in cytosolic calcium serves as a functional read-out for many receptors and channels.
In general, IC50 refers to the concentration that gives 50% inhibition. Turning to `CCc1nc(-c2nnn(C)c2Cn2nc(C3CC3)ccc2=O)ccc1N1C[C@@H](CC(=O)O)CC(F)(F)C1` [Example 36, (S)2-(1-(6-(5-((3-cyclopropyl-6-oxopyridazin-1(6H)-yl)methyl)-1-methyl-1H-1,2,3-triazol-4-yl)-2-ethylpyridin-3-yl)-5,5-difluoropiperidin-3-yl)acetic acid], the IC50 was 100 to 500 nM.
With `CCCc1ccc(=O)n(Cc2c(-c3ncc(N4C[C@@H](CC(=O)O)CC(F)(F)C4)c(CC)n3)cnn2C)c1` [Example 37, (S)-2-(1-(4-ethyl-2-(1-methyl-5-((2-oxo-5-propylpyridin-1(2H)-yl)methyl)-1H-pyrazol-4-yl)pyrimidin-5-yl)-5,5-difluoropiperidin-3-yl)acetic acid], the IC50 is > 5000 nM.
On to `CCCc1cnc(=O)n(Cc2c(-c3ncc(N4C[C@@H](CC(=O)O)CC(F)(F)C4)c(CC)n3)cnn2C)c1` [Example 38, (S)-2-(1-(4-ethyl-2-(1-methyl-5-((2-oxo-5-propylpyrimidin-1(2H)-yl)methyl)-1H-pyrazol-4-yl)pyrimidin-5-yl)-5,5-difluoropiperidin-3-yl)acetic acid], for which the IC50 was > 5000 nM.
In the case of `CCc1nc(-c2cnn(C)c2Cn2cc(C3CC3)ccc2=O)ncc1N1C[C@@H](CC(=O)O)CC(F)(F)C1` [Example 39, (S)-2-(1-(2-(5-((5-cyclopropyl-2-oxopyridin-1(2H)-yl)methyl)-1-methyl-1H-pyrazol-4-yl)-4-ethylpyrimidin-5-yl)-5,5-difluoropiperidin-3-yl)acetic acid] it was 500 to 5000 nM; in that of `CCc1nc(-c2cnn(C)c2Cn2cc(CC(C)C)ccc2=O)ncc1N1C[C@@H](CC(=O)O)CC(F)(F)C1` [Example 40, (S)-2-(1-(4-ethyl-2-(5-((5-isobutyl-2-oxopyridin-1(2H)-yl)methyl)-1-methyl-1H-pyrazol-4-yl)pyrimidin-5-yl)-5,5-difluoropiperidin-3-yl)acetic acid], 500 to 5000 nM.
`CCCc1ccc(=O)n(Cc2c(-c3ccc(N4C[C@@H](CC(=O)O)CC(F)(F)C4)c(CC)n3)cnn2C)c1` [Example 41, (S)-2-(1-(2-ethyl-6-(1-methyl-5-((2-oxo-5-propylpyridin-1(2H)-yl)methyl)-1H-pyrazol-4-yl)pyridin-3-yl)-5,5-difluoropiperidin-3-yl)acetic acid]: the IC50 fell in the range of 100 to 500 nM.
For the compound `CCCc1ccc(=O)n(Cc2c(-c3ccc(N4CCC[C@H](CC(=O)O)C4)c(CC)n3)cnn2C)c1` [Example 42, (R)-2-(1-(2-ethyl-6-(1-methyl-5-((2-oxo-5-propylpyridin-1(2H)-yl)methyl)-1H-pyrazol-4-yl)pyridin-3-yl)piperidin-3-yl)acetic acid], the 50% inhibitory concentration (IC50) was 500 to 5000 nM.
For the compound `CCCc1ccnn(CCc2c(-c3ccc(N4CC(CC(=O)O)CC(F)(F)C4)c(C)n3)nnn2C)c1=O` (stereo not shown) [Example 44, 2-[5,5-difluoro-1-(2-methyl-6-{1-methyl-5-[2-(6-oxo-5-propyl-1,6-dihydropyridazin-1-yl)ethyl]-1H-1,2,3-triazol-4-yl}pyridin-3-yl)piperidin-3-yl]acetic acid], the IC50 is > 5000 nM.
To `CCCc1ccc(=O)n(Cc2c(-c3cc(F)c(N4CCCC(CC(=O)O)C4)c(C)n3)nnn2C)c1` (stereo not shown) [Example 47, 2-(1-(4-fluoro-2-methyl-6-(1-methyl-5-((2-oxo-5-propylpyridin-1(2H)-yl)methyl)-1H-1,2,3-triazol-4-yl)pyridin-3-yl)piperidin-3-yl)acetic acid] belongs > 5000 nM.
With `CCCc1ccc(=O)n(Cc2c(-c3cc(F)c(N4CCCC(CC(=O)O)C4)c(CC)n3)nnn2C)c1` (stereo not shown) [Example 48, 2-(1-(2-ethyl-4-fluoro-6-(1-methyl-5-((2-oxo-5-propylpyridin-1(2H)-yl)methyl)-1H-1,2,3-triazol-4-yl)pyridin-3-yl)piperidin-3-yl)acetic acid], the IC50 was > 5000 nM.
In the case of `CCCc1ccc(=O)n(Cc2c(-c3ccc(N4C[C@@H](CC(=O)O)CC(F)(F)C4)c(C#N)n3)nnn2C)c1` [Example 49, (S)-2-(1-(2-cyano-6-(1-methyl-5-((2-oxo-5-propylpyridin-1(2H)-yl)methyl)-1H-1,2,3-triazol-4-yl)pyridin-3-yl)-5,5-difluoropiperidin-3-yl)acetic acid] it was > 5000 nM.
With `CCCc1ccc(=O)n(Cc2c(-c3ccc(N4CCC[C@H](CC(=O)O)C4)c(C#N)n3)nnn2C)c1` [Example 50, (R)-2-(1-(2-cyano-6-(1-methyl-5-((2-oxo-5-propylpyridin-1(2H)-yl)methyl)-1H-1,2,3-triazol-4-yl)pyridin-3-yl)piperidin-3-yl)acetic acid], the half-maximal inhibitory concentration (IC50) was > 5000 nM.
As for `CCCc1ccc(=O)n(Cc2c(-c3ccc(N4CCC[C@@H](CC(=O)O)C4)c(C#N)n3)nnn2C)c1` [Example 51, (S)-2-(1-(2-cyano-6-(1-methyl-5-((2-oxo-5-propylpyridin-1(2H)-yl)methyl)-1H-1,2,3-triazol-4-yl)pyridin-3-yl)piperidin-3-yl)acetic acid], the IC50 is > 5000 nM.
Take `CCCc1ccc(=O)n(Cc2c(-c3cnc(N4CCCC(CC(=O)O)C4)cn3)nnn2C)c1` (stereo not shown) [Example 57, 2-(1-(5-(1-methyl-5-((2-oxo-5-propylpyridin-1(2H)-yl)methyl)-1H-1,2,3-triazol-4-yl)pyrazin-2-yl)piperidin-3-yl)acetic acid]: the IC50 is > 5000 nM.
Take `CCCc1ccc(=O)n(Cc2c(-c3ccc(N4CCC[C@H](CC(=O)O)C4)c(C(F)(F)F)n3)nnn2C)c1` [Example 58, 2-[(3R)-1-(6-{1-methyl-5-[(2-oxo-5-propyl-1,2-dihydropyridin-1-yl)methyl]-1H-1,2,3-triazol-4-yl}-2-(trifluoromethyl)pyridin-3-yl)piperidin-3-yl]acetic acid]: the half-maximal inhibitory concentration (IC50) is < 100 nM.
In the case of `Cn1nnc(-c2ccc(N3CCC[C@H](CC(=O)O)C3)c(C(F)(F)F)n2)c1Cn1cc(C2CC2)ccc1=O` [Example 59, (R)-2-(1-(6-(5-((5-cyclopropyl-2-oxopyridin-1(2H)-yl)methyl)-1-methyl-1H-1,2,3-triazol-4-yl)-2-(trifluoromethyl)pyridin-3-yl)piperidin-3-yl)acetic acid] it was < 100 nM; in that of `CCCc1ccc(=O)n(Cc2c(-c3ccc(N4CCC[C@H](CC(=O)O)C4)c(C(F)F)n3)nnn2C)c1` [Example 60, (R)-2-(1-(2-(difluoromethyl)-6-(1-methyl-5-((2-oxo-5-propylpyridin-1(2H)-yl)methyl)-1H-1,2,3-triazol-4-yl)pyridin-3-yl)piperidin-3-yl)acetic acid], < 100 nM; in that of `CCc1nc(-c2nnn(C)c2CN2C[C@H](CC3CC3)N(C)C2=O)ccc1N1C[C@@H](CC(=O)O)CC(F)(F)C1` [Example 61, 2-((S)-1-(6-(5-(((S)-4-(cyclopropylmethyl)-3-methyl-2-oxoimidazolidin-1-yl)methyl)-1-methyl-1H-1,2,3-triazol-4-yl)-2-ethylpyridin-3-yl)-5,5-difluoropiperidin-3-yl)acetic acid], 500 to 5000 nM.
To `Cc1nc(-c2nnn(C)c2CN2C[C@@H](CC3CC3)N(C)C2=O)ccc1N1C[C@@H](CC(=O)O)CC(F)(F)C1` [Example 62, 2-((S)-1-(6-(5-(((R)-4-(cyclopropylmethyl)-3-methyl-2-oxoimidazolidin-1-yl)methyl)-1-methyl-1H-1,2,3-triazol-4-yl)-2-methylpyridin-3-yl)-5,5-difluoropiperidin-3-yl)acetic acid] belongs 500 to 5000 nM; to `Cc1nc(-c2nnn(C)c2CN2C[C@H](CC3CC3)N(C)C2=O)ccc1N1C[C@@H](CC(=O)O)CC(F)(F)C1` [Example 63, 2-((S)-1-(6-(5-(((S)-4-(cyclopropylmethyl)-3-methyl-2-oxoimidazolidin-1-yl)methyl)-1-methyl-1H-1,2,3-triazol-4-yl)-2-methylpyridin-3-yl)-5,5-difluoropiperidin-3-yl)acetic acid], 100 to 500 nM.
To `Cc1nc(-c2nnn(C)c2CN2C[C@H](CC3CC3)N(C)C2=O)ccc1N1C[C@H](CC(=O)O)CC(F)(F)C1` [Example 64, 2-((R)-1-(6-(5-(((S)-4-(cyclopropylmethyl)-3-methyl-2-oxoimidazolidin-1-yl)methyl)-1-methyl-1H-1,2,3-triazol-4-yl)-2-methylpyridin-3-yl)-5,5-difluoropiperidin-3-yl)acetic acid] belongs 500 to 5000 nM.
For the compound `CCc1nc(-c2nnn(C)c2CN2C[C@H](CC3CC3)NC2=O)ccc1N1C[C@@H](CC(=O)O)CC(F)(F)C1` [Example 65, 2-((S)-1-(6-(5-(((S)-4-(cyclopropylmethyl)-2-oxoimidazolidin-1-yl)methyl)-1-methyl-1H-1,2,3-triazol-4-yl)-2-ethylpyridin-3-yl)-5,5-difluoropiperidin-3-yl)acetic acid], the half-inhibitory concentration (IC50) is > 5000 nM.
As to `Cc1nc(-c2nnn(C)c2Cn2cc(CC3CC3)n(C)c2=O)ccc1N1C[C@@H](CC(=O)O)CC(F)(F)C1` [Example 67, (S)-2-(1-(6-(5-((4-(cyclopropylmethyl)-3-methyl-2-oxo-2,3-dihydro-1H-imidazol-1-yl)methyl)-1-methyl-1H-1,2,3-triazol-4-yl)-2-methylpyridin-3-yl)-5,5-difluoropiperidin-3-yl)acetic acid], the IC50 fell in the range of 100 to 500 nM.
In the case of `CCc1nc(-c2nnn(C)c2Cn2nc(CC3CC3)n(C)c2=O)ccc1N1C[C@@H](CC(=O)O)CC(F)(F)C1` [Example 68, (S)-2-(1-(6-(5-((3-(cyclopropylmethyl)-4-methyl-5-oxo-4,5-dihydro-1H-1,2,4-triazol-1-yl)methyl)-1-methyl-1H-1,2,3-triazol-4-yl)-2-ethylpyridin-3-yl)-5,5-difluoropiperidin-3-yl)acetic acid] it was 500 to 5000 nM; in that of `Cc1nc(-c2nnn(C)c2Cn2ccn(CC(C)C)c2=O)ccc1N1C[C@@H](CC(=O)O)CC(F)(F)C1` [Example 71, (S)-2-(5,5-difluoro-1-(6-(5-((3-isobutyl-2-oxo-2,3-dihydro-1H-imidazol-1-yl)methyl)-1-methyl-1H-1,2,3-triazol-4-yl)-2-methylpyridin-3-yl)piperidin-3-yl)acetic acid], > 5000 nM.
